Results taken from the supplement of paper PMC10307832.

Columns and labels:
Assay in all cases: relative viability (nuclei count vs DMSO), 5 days (fraction); higher = more cells survive
IPA-3 + Navitoclax = compound: C1=CC=C2C(=C1)C=CC(=C2SSC3=C(C=CC4=CC=CC=C43)O)O [IPA-3] + CC1(C)CCC(c2ccc(Cl)cc2)=C(CN2CCN(c3ccc(C(=O)NS(=O)(=O)c4ccc(N[C@H](CCN5CCOCC5)CSc5ccccc5)c(S(=O)(=O)C(F)(F)F)c4)cc3)CC2)C1 [Navitoclax] (partner 0.5 µM)
Method in brief: (§1)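 Lung cancer cell lines were seeded in 1536-well plates and dosed by pin tool the next day, with either a single drug or a fixed anchor-drug dose combined with five library-drug doses (not always all listed) spaced in √10 steps. Five days later, one step fixed the cells and stained their nuclei (final 0.05% Triton X-100, 1% formaldehyde, 1 ug/ml Hoechst), and nuclei were counted on 4× images. Relative viability is the nuclei count in treated wells divided by the count in vehicle wells, and each value is the median of duplicate plates.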

[1] = compound: Cc1ccc(-n2nc(C(C)(C)C)cc2NC(=O)Nc2ccc(OCCN3CCOCC3)c3ccccc23)cc1 [Doramapimod] + CC(=O)c1c(C)c2cnc(Nc3ccc(N4CCNCC4)cn3)nc2n(C2CCCC2)c1=O [Palbociclib] (partner 0.5 µM)
Method in brief: as §1

Doramapimod + Navitoclax = compound: Cc1ccc(-n2nc(C(C)(C)C)cc2NC(=O)Nc2ccc(OCCN3CCOCC3)c3ccccc23)cc1 [Doramapimod] + CC1(C)CCC(c2ccc(Cl)cc2)=C(CN2CCN(c3ccc(C(=O)NS(=O)(=O)c4ccc(N[C@H](CCN5CCOCC5)CSc5ccccc5)c(S(=O)(=O)C(F)(F)F)c4)cc3)CC2)C1 [Navitoclax] (partner 0.5 µM)
Method in brief: as §1

RAF265 + Pemetrexed = compound: Cn1c(Nc2ccc(C(F)(F)F)cc2)nc2cc(Oc3ccnc(-c4ncc(C(F)(F)F)[nH]4)c3)ccc21 [RAF265] + Nc1nc2[nH]cc(CCc3ccc(C(=O)N[C@@H](CCC(=O)O)C(=O)O)cc3)c2c(=O)[nH]1 [Pemetrexed] (partner 0.2 µM)
Method in brief: as §1

Cell Line: NCI-H838
- relative viability (IPA-3 + Navitoclax; first compound 0.2 µM): 1.35
- relative viability (IPA-3 + Navitoclax; first compound 0.6325 µM): 1.07
- relative viability (IPA-3 + Navitoclax; first compound 2 µM): 1.24
- relative viability (IPA-3 + Navitoclax; first compound 6.325 µM): 1.1
- relative viability (IPA-3 + Navitoclax; first compound 20 µM): 1.25
- relative viability ([1]; first compound 0.02 µM): 0.218
- relative viability ([1]; first compound 0.06325 µM): 0.217
- relative viability ([1]; first compound 0.2 µM): 0.203
- relative viability ([1]; first compound 0.6325 µM): 0.225
- relative viability ([1]; first compound 2 µM): 0.199
- relative viability (Doramapimod + Navitoclax; first compound 0.02 µM): 1.16
- relative viability (Doramapimod + Navitoclax; first compound 0.06325 µM): 1.19
- relative viability (Doramapimod + Navitoclax; first compound 0.2 µM): 1.26
- relative viability (Doramapimod + Navitoclax; first compound 0.6325 µM): 1.32
- relative viability (Doramapimod + Navitoclax; first compound 2 µM): 1.12
- relative viability (RAF265 + Pemetrexed; first compound 0.01 µM): 0.269
- relative viability (RAF265 + Pemetrexed; first compound 0.03162 µM): 0.269
- relative viability (RAF265 + Pemetrexed; first compound 0.1 µM): 0.265
- relative viability (RAF265 + Pemetrexed; first compound 0.3162 µM): 0.299
- relative viability (RAF265 + Pemetrexed; first compound 1 µM): 0.237

Cell Line: LK-2
- relative viability (IPA-3 + Navitoclax; first compound 0.2 µM): 0.983
- relative viability (IPA-3 + Navitoclax; first compound 0.6325 µM): 0.881
- relative viability (IPA-3 + Navitoclax; first compound 2 µM): 0.81
- relative viability (IPA-3 + Navitoclax; first compound 6.325 µM): 1.05
- relative viability (IPA-3 + Navitoclax; first compound 20 µM): 1.17
- relative viability ([1]; first compound 0.02 µM): 0.515
- relative viability ([1]; first compound 0.06325 µM): 0.576
- relative viability ([1]; first compound 0.2 µM): 0.54
- relative viability ([1]; first compound 0.6325 µM): 0.518
- relative viability ([1]; first compound 2 µM): 0.413
- relative viability (Doramapimod + Navitoclax; first compound 0.02 µM): 0.731
- relative viability (Doramapimod + Navitoclax; first compound 0.06325 µM): 0.757
- relative viability (Doramapimod + Navitoclax; first compound 0.2 µM): 0.695
- relative viability (Doramapimod + Navitoclax; first compound 0.6325 µM): 0.72
- relative viability (Doramapimod + Navitoclax; first compound 2 µM): 0.741
- relative viability (RAF265 + Pemetrexed; first compound 0.01 µM): 0.237
- relative viability (RAF265 + Pemetrexed; first compound 0.03162 µM): 0.352
- relative viability (RAF265 + Pemetrexed; first compound 0.1 µM): 0.188
- relative viability (RAF265 + Pemetrexed; first compound 0.3162 µM): 0.244
- relative viability (RAF265 + Pemetrexed; first compound 1 µM): 0.215

Cell Line: NCI-H1650
- relative viability (IPA-3 + Navitoclax; first compound 0.2 µM): 1.37
- relative viability (IPA-3 + Navitoclax; first compound 0.6325 µM): 1.26
- relative viability (IPA-3 + Navitoclax; first compound 2 µM): 1.12
- relative viability (IPA-3 + Navitoclax; first compound 6.325 µM): 1.09
- relative viability (IPA-3 + Navitoclax; first compound 20 µM): 1.34
- relative viability ([1]; first compound 0.02 µM): 0.411
- relative viability ([1]; first compound 0.06325 µM): 0.363
- relative viability ([1]; first compound 0.2 µM): 0.428
- relative viability ([1]; first compound 0.6325 µM): 0.425
- relative viability ([1]; first compound 2 µM): 0.35
- relative viability (Doramapimod + Navitoclax; first compound 0.02 µM): 1.09
- relative viability (Doramapimod + Navitoclax; first compound 0.06325 µM): 1.2
- relative viability (Doramapimod + Navitoclax; first compound 0.2 µM): 1.23
- relative viability (Doramapimod + Navitoclax; first compound 0.6325 µM): 1.63
- relative viability (Doramapimod + Navitoclax; first compound 2 µM): 1.2
- relative viability (RAF265 + Pemetrexed; first compound 0.01 µM): 0.336
- relative viability (RAF265 + Pemetrexed; first compound 0.03162 µM): 0.362
- relative viability (RAF265 + Pemetrexed; first compound 0.1 µM): 0.431
- relative viability (RAF265 + Pemetrexed; first compound 0.3162 µM): 0.324
- relative viability (RAF265 + Pemetrexed; first compound 1 µM): 0.369

Cell Line: NCI-H322M
- relative viability (IPA-3 + Navitoclax; first compound 0.2 µM): 1.29
- relative viability (IPA-3 + Navitoclax; first compound 0.6325 µM): 1.12
- relative viability (IPA-3 + Navitoclax; first compound 2 µM): 1.17
- relative viability (IPA-3 + Navitoclax; first compound 6.325 µM): 1.25
- relative viability (IPA-3 + Navitoclax; first compound 20 µM): 1.29
- relative viability ([1]; first compound 0.02 µM): 0.458
- relative viability ([1]; first compound 0.06325 µM): 0.492
- relative viability ([1]; first compound 0.2 µM): 0.483
- relative viability ([1]; first compound 0.6325 µM): 0.554
- relative viability ([1]; first compound 2 µM): 0.486
- relative viability (Doramapimod + Navitoclax; first compound 0.02 µM): 1.12
- relative viability (Doramapimod + Navitoclax; first compound 0.06325 µM): 1.16
- relative viability (Doramapimod + Navitoclax; first compound 0.2 µM): 1.16
- relative viability (Doramapimod + Navitoclax; first compound 0.6325 µM): 1.33
- relative viability (Doramapimod + Navitoclax; first compound 2 µM): 1.2
- relative viability (RAF265 + Pemetrexed; first compound 0.01 µM): 0.587
- relative viability (RAF265 + Pemetrexed; first compound 0.03162 µM): 0.605
- relative viability (RAF265 + Pemetrexed; first compound 0.1 µM): 0.472
- relative viability (RAF265 + Pemetrexed; first compound 0.3162 µM): 0.357
- relative viability (RAF265 + Pemetrexed; first compound 1 µM): 0.335

Cell Line: NCI-H2228
- relative viability (IPA-3 + Navitoclax; first compound 0.2 µM): 0.917
- relative viability (IPA-3 + Navitoclax; first compound 0.6325 µM): 0.89
- relative viability (IPA-3 + Navitoclax; first compound 2 µM): 0.788
- relative viability (IPA-3 + Navitoclax; first compound 6.325 µM): 0.886
- relative viability (IPA-3 + Navitoclax; first compound 20 µM): 1.02
- relative viability ([1]; first compound 0.02 µM): 0.797
- relative viability ([1]; first compound 0.06325 µM): 1.04
- relative viability ([1]; first compound 0.2 µM): 0.746
- relative viability ([1]; first compound 0.6325 µM): 0.686
- relative viability ([1]; first compound 2 µM): 0.66
- relative viability (Doramapimod + Navitoclax; first compound 0.02 µM): 0.669
- relative viability (Doramapimod + Navitoclax; first compound 0.06325 µM): 0.786
- relative viability (Doramapimod + Navitoclax; first compound 0.2 µM): 1.05
- relative viability (Doramapimod + Navitoclax; first compound 0.6325 µM): 0.913
- relative viability (Doramapimod + Navitoclax; first compound 2 µM): 0.605
- relative viability (RAF265 + Pemetrexed; first compound 0.01 µM): 0.325
- relative viability (RAF265 + Pemetrexed; first compound 0.03162 µM): 0.353
- relative viability (RAF265 + Pemetrexed; first compound 0.1 µM): 0.303
- relative viability (RAF265 + Pemetrexed; first compound 0.3162 µM): 0.297
- relative viability (RAF265 + Pemetrexed; first compound 1 µM): 0.268

Cell Line: NCI-H1395
- relative viability (IPA-3 + Navitoclax; first compound 0.2 µM): 1.13
- relative viability (IPA-3 + Navitoclax; first compound 0.6325 µM): 1.05
- relative viability (IPA-3 + Navitoclax; first compound 2 µM): 1.13
- relative viability (IPA-3 + Navitoclax; first compound 6.325 µM): 1.16
- relative viability (IPA-3 + Navitoclax; first compound 20 µM): 1.57
- relative viability ([1]; first compound 0.02 µM): 0.67
- relative viability ([1]; first compound 0.06325 µM): 0.6
- relative viability ([1]; first compound 0.2 µM): 0.64
- relative viability ([1]; first compound 0.6325 µM): 0.58
- relative viability ([1]; first compound 2 µM): 0.583
- relative viability (Doramapimod + Navitoclax; first compound 0.02 µM): 1.17
- relative viability (Doramapimod + Navitoclax; first compound 0.06325 µM): 1.12
- relative viability (Doramapimod + Navitoclax; first compound 0.2 µM): 1.1
- relative viability (Doramapimod + Navitoclax; first compound 0.6325 µM): 1.12
- relative viability (Doramapimod + Navitoclax; first compound 2 µM): 1.06
- relative viability (RAF265 + Pemetrexed; first compound 0.01 µM): 0.893
- relative viability (RAF265 + Pemetrexed; first compound 0.03162 µM): 0.878
- relative viability (RAF265 + Pemetrexed; first compound 0.1 µM): 0.824
- relative viability (RAF265 + Pemetrexed; first compound 0.3162 µM): 0.65
- relative viability (RAF265 + Pemetrexed; first compound 1 µM): 0.683

Cell Line: NCI-H520
- relative viability (IPA-3 + Navitoclax; first compound 0.2 µM): 1.16
- relative viability (IPA-3 + Navitoclax; first compound 0.6325 µM): 0.971
- relative viability (IPA-3 + Navitoclax; first compound 2 µM): 0.863
- relative viability (IPA-3 + Navitoclax; first compound 6.325 µM): 1.02
- relative viability (IPA-3 + Navitoclax; first compound 20 µM): 1.12
- relative viability ([1]; first compound 0.02 µM): 0.214
- relative viability ([1]; first compound 0.06325 µM): 0.222
- relative viability ([1]; first compound 0.2 µM): 0.21
- relative viability ([1]; first compound 0.6325 µM): 0.213
- relative viability ([1]; first compound 2 µM): 0.214
- relative viability (Doramapimod + Navitoclax; first compound 0.02 µM): 1
- relative viability (Doramapimod + Navitoclax; first compound 0.06325 µM): 1.11
- relative viability (Doramapimod + Navitoclax; first compound 0.2 µM): 1.08
- relative viability (Doramapimod + Navitoclax; first compound 0.6325 µM): 1.18
- relative viability (Doramapimod + Navitoclax; first compound 2 µM): 1.02
- relative viability (RAF265 + Pemetrexed; first compound 0.01 µM): 0.637
- relative viability (RAF265 + Pemetrexed; first compound 0.03162 µM): 0.536
- relative viability (RAF265 + Pemetrexed; first compound 0.1 µM): 0.629
- relative viability (RAF265 + Pemetrexed; first compound 0.3162 µM): 0.507
- relative viability (RAF265 + Pemetrexed; first compound 1 µM): 0.36

Cell Line: NCI-H441
- relative viability (IPA-3 + Navitoclax; first compound 0.2 µM): 0.814
- relative viability (IPA-3 + Navitoclax; first compound 2 µM): 0.405
- relative viability (IPA-3 + Navitoclax; first compound 6.325 µM): 0.216
- relative viability (IPA-3 + Navitoclax; first compound 20 µM): 0.771
- relative viability ([1]; first compound 0.02 µM): 0.197
- relative viability ([1]; first compound 0.06325 µM): 0.221
- relative viability ([1]; first compound 0.2 µM): 0.203
- relative viability ([1]; first compound 0.6325 µM): 0.191
- relative viability ([1]; first compound 2 µM): 0.219
- relative viability (Doramapimod + Navitoclax; first compound 0.02 µM): 0.857
- relative viability (Doramapimod + Navitoclax; first compound 0.2 µM): 0.558
- relative viability (Doramapimod + Navitoclax; first compound 0.6325 µM): 0.818
- relative viability (Doramapimod + Navitoclax; first compound 2 µM): 0.353
- relative viability (RAF265 + Pemetrexed; first compound 0.01 µM): 0.267
- relative viability (RAF265 + Pemetrexed; first compound 0.03162 µM): 0.251
- relative viability (RAF265 + Pemetrexed; first compound 0.1 µM): 0.258
- relative viability (RAF265 + Pemetrexed; first compound 0.3162 µM): 0.223
- relative viability (RAF265 + Pemetrexed; first compound 1 µM): 0.224
